In PubChem BioAssay (NCI):
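How tested: cells in 96-well plates exposed to compound for 48 hours at five concentrations. At the GI50, growth is halved. TGI marks complete inhibition of growth.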

tested on: OVCAR-3 ovarian; assay: growth of human tumour cells (NCI), 48 h

Row | Structure (SMILES) | GI50 [µM] | TGI [µM]
1 | Cc1ccc(N(CSc2ccc(Cl)cc2)CSc2ccc(Cl)cc2)cc1 | 2.75 | 11.5
2 | Nc1ccncc1/C=C1/C(=O)Nc2ccccc21 | 25.4 | 76.3
3 | O=c1[nH]c2cc(Cl)ccc2n1C1CCN(CCCC(c2ccc(F)cc2)c2ccc(F)cc2)CC1 | 1.81 | 3.27

tested on: PC-3 prostate; assay: growth of human tumour cells (NCI), 48 h

Row | Structure (SMILES) | GI50 [µM] | TGI [µM]
4 | CCOC(=O)C1=C(C)N(N)C(=S)NC1c1ccc(C)cc1 (stereo not drawn) | 32.8 | > 100
5 | Cc1ccc(N(CSc2ccc(Cl)cc2)CSc2ccc(Cl)cc2)cc1 | 0.787 | 13.2
6 | Nc1ccncc1/C=C1/C(=O)Nc2ccccc21 | 41.1 | > 100
7 | O=c1[nH]c2cc(Cl)ccc2n1C1CCN(CCCC(c2ccc(F)cc2)c2ccc(F)cc2)CC1 | 1.69 | 4.4

tested on: COLO 205 colon; assay: growth of human tumour cells (NCI), 48 h

Row | Structure (SMILES) | GI50 [µM] | TGI [µM]
8 | CCOC(=O)C1=C(C)N(N)C(=S)NC1c1ccc(C)cc1 (stereo not drawn) | 33.5 | > 100
9 | Cc1ccc(N(CSc2ccc(Cl)cc2)CSc2ccc(Cl)cc2)cc1 | 1.84 | 3.38
10 | Nc1ccncc1/C=C1/C(=O)Nc2ccccc21 | 19.8 | > 100
11 | O=c1[nH]c2cc(Cl)ccc2n1C1CCN(CCCC(c2ccc(F)cc2)c2ccc(F)cc2)CC1 | 1.23 | 2.6

tested on: HL-60(TB) leukemia; assay: growth of human tumour cells (NCI), 48 h

Row | Structure (SMILES) | GI50 [µM] | TGI [µM]
12 | Cc1ccc(N(CSc2ccc(Cl)cc2)CSc2ccc(Cl)cc2)cc1 | 1.65 | 3.65
13 | Nc1ccncc1/C=C1/C(=O)Nc2ccccc21 | 14.5 | 39.8
14 | O=c1[nH]c2cc(Cl)ccc2n1C1CCN(CCCC(c2ccc(F)cc2)c2ccc(F)cc2)CC1 | 2.97 | 14.7

tested on: SF-295 CNS; assay: growth of human tumour cells (NCI), 48 h

Row | Structure (SMILES) | GI50 [µM] | TGI [µM]
15 | CCOC(=O)C1=C(C)N(N)C(=S)NC1c1ccc(C)cc1 (stereo not drawn) | 36.9 | > 100
16 | Cc1ccc(N(CSc2ccc(Cl)cc2)CSc2ccc(Cl)cc2)cc1 | 0.375 | 2.6
17 | Nc1ccncc1/C=C1/C(=O)Nc2ccccc21 | 28.2 | 79

tested on: SR leukemia; assay: growth of human tumour cells (NCI), 48 h

Row | Structure (SMILES) | GI50 [µM] | TGI [µM]
18 | CCOC(=O)C1=C(C)N(N)C(=S)NC1c1ccc(C)cc1 (stereo not drawn) | 28.3 | > 100
19 | Cc1ccc(N(CSc2ccc(Cl)cc2)CSc2ccc(Cl)cc2)cc1 | 1.04 | 4.86
20 | Nc1ccncc1/C=C1/C(=O)Nc2ccccc21 | 23.2 | > 100
21 | O=c1[nH]c2cc(Cl)ccc2n1C1CCN(CCCC(c2ccc(F)cc2)c2ccc(F)cc2)CC1 | 2.25 | 8.36

tested on: CCRF-CEM leukemia; assay: growth of human tumour cells (NCI), 48 h

Row | Structure (SMILES) | GI50 [µM] | TGI [µM]
22 | CCOC(=O)C1=C(C)N(N)C(=S)NC1c1ccc(C)cc1 (stereo not drawn) | 49.8 | > 100
23 | Cc1ccc(N(CSc2ccc(Cl)cc2)CSc2ccc(Cl)cc2)cc1 | 0.246 | 2.5
24 | Nc1ccncc1/C=C1/C(=O)Nc2ccccc21 | 68.3 | > 100
25 | O=c1[nH]c2cc(Cl)ccc2n1C1CCN(CCCC(c2ccc(F)cc2)c2ccc(F)cc2)CC1 | 2.31 | 6.98

tested on: MALME-3M melanoma; assay: growth of human tumour cells (NCI), 48 h

Row | Structure (SMILES) | GI50 [µM] | TGI [µM]
26 | CCOC(=O)C1=C(C)N(N)C(=S)NC1c1ccc(C)cc1 (stereo not drawn) | 14.4 | > 100
27 | Cc1ccc(N(CSc2ccc(Cl)cc2)CSc2ccc(Cl)cc2)cc1 | 3.65 | 18.4
28 | Nc1ccncc1/C=C1/C(=O)Nc2ccccc21 | 20.6 | 80.9
29 | O=c1[nH]c2cc(Cl)ccc2n1C1CCN(CCCC(c2ccc(F)cc2)c2ccc(F)cc2)CC1 | 1.88 | 4.21

tested on: UACC-62 melanoma; assay: growth of human tumour cells (NCI), 48 h

Row | Structure (SMILES) | GI50 [µM] | TGI [µM]
30 | CCOC(=O)C1=C(C)N(N)C(=S)NC1c1ccc(C)cc1 (stereo not drawn) | 23.3 | > 100
31 | Cc1ccc(N(CSc2ccc(Cl)cc2)CSc2ccc(Cl)cc2)cc1 | 0.818 | 2.91
32 | Nc1ccncc1/C=C1/C(=O)Nc2ccccc21 | 32.5 | > 100
33 | O=c1[nH]c2cc(Cl)ccc2n1C1CCN(CCCC(c2ccc(F)cc2)c2ccc(F)cc2)CC1 | 1.71 | 3.13

tested on: A549 NSCLC; assay: growth of human tumour cells (NCI), 48 h

Row | Structure (SMILES) | GI50 [µM] | TGI [µM]
34 | CCOC(=O)C1=C(C)N(N)C(=S)NC1c1ccc(C)cc1 (stereo not drawn) | 94.6 | > 100
35 | Cc1ccc(N(CSc2ccc(Cl)cc2)CSc2ccc(Cl)cc2)cc1 | 0.448 | > 100
36 | Nc1ccncc1/C=C1/C(=O)Nc2ccccc21 | 56.9 | > 100
37 | O=c1[nH]c2cc(Cl)ccc2n1C1CCN(CCCC(c2ccc(F)cc2)c2ccc(F)cc2)CC1 | 1.65 | 3.39

tested on: SK-MEL-5 melanoma; assay: growth of human tumour cells (NCI), 48 h

Row | Structure (SMILES) | GI50 [µM] | TGI [µM]
38 | CCOC(=O)C1=C(C)N(N)C(=S)NC1c1ccc(C)cc1 (stereo not drawn) | 13.1 | 30.4
39 | Cc1ccc(N(CSc2ccc(Cl)cc2)CSc2ccc(Cl)cc2)cc1 | 1.18 | 2.5
40 | Nc1ccncc1/C=C1/C(=O)Nc2ccccc21 | 28 | > 100
41 | O=c1[nH]c2cc(Cl)ccc2n1C1CCN(CCCC(c2ccc(F)cc2)c2ccc(F)cc2)CC1 | 1.55 | 2.89

tested on: HS 578T breast; assay: growth of human tumour cells (NCI), 48 h

Row | Structure (SMILES) | GI50 [µM] | TGI [µM]
42 | Nc1ccncc1/C=C1/C(=O)Nc2ccccc21 | 41.2 | > 100

tested on: RPMI-8226 leukemia; assay: growth of human tumour cells (NCI), 48 h

Row | Structure (SMILES) | GI50 [µM] | TGI [µM]
43 | CCOC(=O)C1=C(C)N(N)C(=S)NC1c1ccc(C)cc1 (stereo not drawn) | 44.7 | > 100
44 | Cc1ccc(N(CSc2ccc(Cl)cc2)CSc2ccc(Cl)cc2)cc1 | 2.13 | 6.46
45 | Nc1ccncc1/C=C1/C(=O)Nc2ccccc21 | > 100 | > 100
46 | O=c1[nH]c2cc(Cl)ccc2n1C1CCN(CCCC(c2ccc(F)cc2)c2ccc(F)cc2)CC1 | 0.711 | 3.6

tested on: T-47D breast; assay: growth of human tumour cells (NCI), 48 h

Row | Structure (SMILES) | GI50 [µM] | TGI [µM]
47 | CCOC(=O)C1=C(C)N(N)C(=S)NC1c1ccc(C)cc1 (stereo not drawn) | 23.1 | > 100
48 | Cc1ccc(N(CSc2ccc(Cl)cc2)CSc2ccc(Cl)cc2)cc1 | 2.92 | 18.3
49 | Nc1ccncc1/C=C1/C(=O)Nc2ccccc21 | > 100 | > 100
50 | O=c1[nH]c2cc(Cl)ccc2n1C1CCN(CCCC(c2ccc(F)cc2)c2ccc(F)cc2)CC1 | 1.83 | 3.79

tested on: MCF7 breast; assay: growth of human tumour cells (NCI), 48 h

Row | Structure (SMILES) | GI50 [µM] | TGI [µM]
51 | CCOC(=O)C1=C(C)N(N)C(=S)NC1c1ccc(C)cc1 (stereo not drawn) | 16 | 73.6
52 | Cc1ccc(N(CSc2ccc(Cl)cc2)CSc2ccc(Cl)cc2)cc1 | 2.25 | 12.1
53 | Nc1ccncc1/C=C1/C(=O)Nc2ccccc21 | 26.6 | > 100
54 | O=c1[nH]c2cc(Cl)ccc2n1C1CCN(CCCC(c2ccc(F)cc2)c2ccc(F)cc2)CC1 | 1.35 | 2.84
